According to US20080200454A1, “CARBON-LINKED TETRAHYDRO-PYRAZOLO-PYRIDINE MODULATORS OF CATHEPSIN S” (priority 2007, published 2008):

target: Recombinant human cathepsin S (CatS) (Homo sapiens, UniProt P25774); assay: Recombinant human cathepsin S (CatS) inhibition assay, fluorogenic substrate Z-Valine-Valine-Arginine-AMC; settings: not given;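 further: Baculovirus-expressed CatS in pH 5.0 sodium acetate buffer with DTT and NaCl, fluorescence read each minute over 20 min, inhibition derived from rate slope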
Sequence (P25774 115-331): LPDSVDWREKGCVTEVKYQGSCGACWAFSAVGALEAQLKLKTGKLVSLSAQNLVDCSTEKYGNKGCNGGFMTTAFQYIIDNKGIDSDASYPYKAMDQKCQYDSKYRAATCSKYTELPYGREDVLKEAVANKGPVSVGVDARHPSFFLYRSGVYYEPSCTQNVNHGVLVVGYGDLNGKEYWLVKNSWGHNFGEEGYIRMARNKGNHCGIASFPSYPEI

In order of rising IC50:
1. CC1COCCN1CCCn1nc(-c2ccc(Cl)c(C#Cc3ccc(Cl)c(CNCC(=O)O)c3)c2)c2c1CCN(C(N)=O)C2 (stereo in doubt) [Example 221, N-{[5-({5-[5-(Aminocarbonyl)-1-{3-[(3S)-3-methylmorpholin-4-yl]propyl}-4,5,6,7-tetrahydro-1H-pyrazolo[4,3-c]pyridin-3-yl]-2-chlorophenyl}ethynyl)-2-chlorophenyl]methyl}glycine]  20 nM
2. NC(=O)C(=O)N1CCc2c(c(-c3ccc(Cl)c(C#Cc4ccc(Cl)c(C(=O)NC[C@@H]5CCCN5)c4)c3)nn2CCCN2CCSCC2)C1 [Example 557, 5-[(5-{5-[Amino(oxo)acetyl]-1-(3-thiomorpholin-4-ylpropyl)-4,5,6,7-tetrahydro-1H-pyrazolo[4,3-c]pyridin-3-yl}-2-chlorophenyl)ethynyl]-2-chloro-N-[(2S)-pyrrolidin-2-ylmethyl]benzamide]  30 nM
3. NC(=O)C(=O)N1CCc2c(c(-c3ccc(Cl)c(C#Cc4ccc(Cl)c(CN[C@@H](CO)c5ccccc5)c4)c3)nn2CCCN2CCSCC2)C1 [Example 563, 2-[3-(4-Chloro-3-{[4-chloro-3-({[(1R)-2-hydroxy-1-phenylethyl]amino}methyl)phenyl]ethynyl}phenyl)-1-(3-thiomorpholin-4-ylpropyl)-1,4,6,7-tetrahydro-5H-pyrazolo[4,3-c]pyridin-5-yl]-2-oxoacetamide]  30 nM
4. CC(=O)N1CCC(C2CCN(C[C@H](O)Cn3nc(-c4ccc(Cl)c(C#Cc5ccc(Cl)cc5)c4)c4c3CCN(S(C)(=O)=O)C4)CC2)CC1 [Example 241, (2S)-1-(1′-Acetyl-4,4′-bipiperidin-1-yl)-3-[3-{4-chloro-3-[(4-chlorophenyl)ethynyl]phenyl}-5-(methylsulfonyl)-4,5,6,7-tetrahydro-1H-pyrazolo[4,3-c]pyridin-1-yl]propan-2-ol]  30 nM
5. NC(=O)N1CCc2c(c(-c3ccc(Cl)c(C#Cc4ccc(CNCc5ccc(Cl)cc5)cc4)c3)nn2CCCN2CCN(c3ccccc3)CC2)C1 [Example 430, 3-(4-Chloro-3-{[4-({[(4-chlorophenyl)methyl]amino}methyl)phenyl]ethynyl}phenyl)-1-[3-(4-phenylpiperazin-1-yl)propyl]-1,4,6,7-tetrahydro-5H-pyrazolo[4,3-c]pyridine-5-carboxamide]  40 nM
6. CS(=O)(=O)N1CCc2c(c(-c3ccc(Cl)c(C#Cc4ccc(CNCc5ccc(Cl)cc5)cc4)c3)nn2CCCN2CCCCC2)C1 [Example 181, 1-[4-({2-Chloro-5-[5-(methylsulfonyl)-1-(3-piperidin-1-ylpropyl)-4,5,6,7-tetrahydro-1H-pyrazolo[4,3-c]pyridin-3-yl]phenyl}ethynyl)phenyl]-N-[(4-chlorophenyl)methyl]methanamine]  60 nM
7. CS(=O)(=O)N1CCc2c(c(-c3ccc(Cl)c(C#Cc4ccc(CNCc5ccc(Cl)cc5)cc4)c3)nn2CCCN2C[C@@H]3C[C@H]2CO3)C1 [Example 420, 1-[4-({2-Chloro-5-[5-(methylsulfonyl)-1-{3-[(1S,4S)-2-oxa-5-azabicyclo[2.2.1]hept-5-yl]propyl}-4,5,6,7-tetrahydro-1H-pyrazolo[4,3-c]pyridin-3-yl]phenyl}ethynyl)phenyl]-N-[(4-chlorophenyl)methyl]methanamine]  100 nM
8. CN(C)C(=O)C(=O)N1CCc2c(c(-c3ccc(Cl)c(C#Cc4ccc(CNCc5ccc(Cl)cc5)cc4)c3)nn2CCCN2CCOCC2)C1 [Example 152, 2-[3-(4-Chloro-3-{[4-({[(4-chlorophenyl)methyl]amino}methyl)phenyl]ethynyl}phenyl)-1-(3-morpholin-4-ylpropyl)-1,4,6,7-tetrahydro-5H-pyrazolo[4,3-c]pyridin-5-yl]-N,N-dimethyl-2-oxoacetamide]  110 nM
9. CS(=O)(=O)N1CCc2c(c(-c3ccc(Cl)c(C#Cc4ccc5c(c4)CC(C(=O)N4CCCC4)NC5)c3)nn2CCCN2CCOCC2)C1 (centres unmarked) [Example 484, 6-({2-Chloro-5-[5-(methylsulfonyl)-1-(3-morpholin-4-ylpropyl)-4,5,6,7-tetrahydro-1H-pyrazolo[4,3-c]pyridin-3-yl]phenyl}ethynyl)-3-(pyrrolidin-1-ylcarbonyl)-1,2,3,4-tetrahydroisoquinoline]  180 nM
10. CS(=O)(=O)N1CCc2c(c(-c3ccc(C(F)(F)F)c(CCCNS(=O)(=O)c4ccccc4)c3)nn2CC(O)CN2CCOCC2)C1 (centres unmarked) [Example 306, N-(3-{5-[1-(2-Hydroxy-3-morpholin-4-ylpropyl)-5-(methylsulfonyl)-4,5,6,7-tetrahydro-1H-pyrazolo[4,3-c]pyridin-3-yl]-2-(trifluoromethyl)phenyl}propyl)benzenesulfonamide]  3220 nM
11. CS(=O)(=O)N1CCc2c(c(-c3ccc(Cl)c(CCCCCO)c3)nn2CCCN2CCOCC2)C1 [Example 301, 5-{2-Chloro-5-[5-(methylsulfonyl)-1-(3-morpholin-4-ylpropyl)-4,5,6,7-tetrahydro-1H-pyrazolo[4,3-c]pyridin-3-yl]phenyl}pentan-1-ol]  7050 nM

same assay, conditions: CatS IC50

In order of rising IC50:
1. C[C@@H]1COCCN1CCCn1nc(-c2ccc(Cl)c(C#Cc3ccc(Cl)c(CNCCCO)c3)c2)c2c1CCN(C(N)=O)C2 [Example 222, 3-(4-Chloro-3-{4-chloro-3-[(3-hydroxy-propylamino)-methyl]-phenylethynyl}-phenyl)-1-[3-(3-methyl-morpholin-4-yl)-propyl]-1,4,6,7-tetrahydro-pyrazolo[4,3-c]pyridine-5-carboxylic acid amide]  20 nM
2. CS(=O)(=O)N1CCc2c(c(-c3ccc(Cl)c(C#Cc4ccc(CNCc5ccc(Cl)cc5)cc4)c3)nn2CCCN2CCN(c3cccnc3)CC2)C1 [Example 417, 1-{4-[(2-Chloro-5-{5-(methylsulfonyl)-1-[3-(4-pyridin-3-ylpiperazin-1-yl)propyl]-4,5,6,7-tetrahydro-1H-pyrazolo[4,3-c]pyridin-3-yl}phenyl)ethynyl]phenyl}-N-[(4-chlorophenyl)methyl]methanamine]  20 nM
3. C[C@H]1COCCN1CCCn1nc(-c2ccc(Cl)c(C#Cc3ccc(Cl)c(C(=O)NC[C@@H]4CCNC4)c3)c2)c2c1CCN(C(=O)C(N)=O)C2 [Example 586, 5-{[5-(5-[Amino(oxo)acetyl]-1-{3-[(3S)-3-methylmorpholin-4-yl]propyl}-4,5,6,7-tetrahydro-1H-pyrazolo[4,3-c]pyridin-3-yl)-2-chlorophenyl]ethynyl}-2-chloro-N-[(3R)-pyrrolidin-3-ylmethyl]benzamide]  20 nM
4. CS(=O)(=O)N1CCc2c(c(-c3ccc(Cl)c(C#Cc4ccc(CN[C@@H]5Cc6ccccc6[C@@H]5O)cc4)c3)nn2CCCN2CCN(c3ccccn3)CC2)C1 [Example 213, (1S,2R)-2-[({4-[(2-Chloro-5-{5-(methylsulfonyl)-1-[3-(4-pyridin-2-ylpiperazin-1-yl)propyl]-4,5,6,7-tetrahydro-1H-pyrazolo[4,3-c]pyridin-3-yl}phenyl)ethynyl]phenyl}methyl)amino]-2,3-dihydro-1H-inden-1-ol]  20 nM
5. C[C@H]1COCCN1CCCn1nc(-c2ccc(Cl)c(C#Cc3ccc(Cl)c(C(=O)NCCN4CCOCC4)c3)c2)c2c1CCN(C(=O)C(N)=O)C2 [Example 168, 5-{[5-(5-[Amino(oxo)acetyl]-1-{3-[(3S)-3-methylmorpholin-4-yl]propyl}-4,5,6,7-tetrahydro-1H-pyrazolo[4,3-c]pyridin-3-yl)-2-chlorophenyl]ethynyl}-2-chloro-N-(2-morpholin-4-ylethyl)benzamide]  30 nM
6. Cn1cncc1CNCc1ccc(C#Cc2cc(-c3nn(CCCN4CCOCC4)c4c3CN(S(C)(=O)=O)CC4)ccc2Cl)cc1 [Example 457, 1-[4-({2-Chloro-5-[5-(methylsulfonyl)-1-(3-morpholin-4-ylpropyl)-4,5,6,7-tetrahydro-1H-pyrazolo[4,3-c]pyridin-3-yl]phenyl}ethynyl)phenyl]-N-[(1-methyl-1H-imidazol-5-yl)methyl]methanamine]  90 nM
7. CN(Cc1ccc(Cl)cc1)Cc1ccc(C#Cc2cc(-c3nn(CCCN4CCN(c5ccccn5)CC4)c4c3CN(S(C)(=O)=O)CC4)ccc2Cl)cc1 [Example 502, 1-{4-[(2-Chloro-5-{5-(methylsulfonyl)-1-[3-(4-pyridin-2-ylpiperazin-1-yl)propyl]-4,5,6,7-tetrahydro-1H-pyrazolo[4,3-c]pyridin-3-yl}phenyl)ethynyl]phenyl}-N-[(4-chlorophenyl)methyl]-N-methylmethanamine]  110 nM
8. C[C@H]1COCCN1CCCn1nc(-c2ccc(Cl)c(C#Cc3ccc4c(c3)CN(C)CC4)c2)c2c1CCN(S(C)(=O)=O)C2 [Example 281, 7-({2-Chloro-5-[1-{3-[(3S)-3-methylmorpholin-4-yl]propyl}-5-(methylsulfonyl)-4,5,6,7-tetrahydro-1H-pyrazolo[4,3-c]pyridin-3-yl]phenyl}ethynyl)-2-methyl-1,2,3,4-tetrahydroisoquinoline]  120 nM
9. C[C@H]1COCCN1CCCn1nc(-c2ccc(Cl)c(C#Cc3ccc(CNCc4cccs4)cc3)c2)c2c1CCN(S(C)(=O)=O)C2 [Example 433, 1-[4-({2-Chloro-5-[1-{3-[(3S)-3-methylmorpholin-4-yl]propyl}-5-(methylsulfonyl)-4,5,6,7-tetrahydro-1H-pyrazolo[4,3-c]pyridin-3-yl]phenyl}ethynyl)phenyl]-N-(2-thienylmethyl)methanamine]  240 nM
10. CS(=O)(=O)N1CCc2c(c(-c3ccc(Cl)c(CCc4cccc(CNCc5ccccc5)c4)c3)nn2CCCN2CCOCC2)C1 [Example 535, 1-[3-(2-{2-Chloro-5-[5-(methylsulfonyl)-1-(3-morpholin-4-ylpropyl)-4,5,6,7-tetrahydro-1H-pyrazolo[4,3-c]pyridin-3-yl]phenyl}ethyl)phenyl]-N-(phenylmethyl)methanamine]  640 nM
11. CS(=O)(=O)N1CCc2c(c(-c3ccc(Cl)c(C#Cc4ccccc4Cl)c3)nn2CCCN2CCOCC2)C1 [Example 26, 3-[4-Chloro-3-(2-chloro-phenylethynyl)-phenyl]-5-methanesulfonyl-1-(3-morpholin-4-yl-propyl)-4,5,6,7-tetrahydro-1H-pyrazolo[4,3-c]pyridine]  720 nM

same assay, conditions: CatS IC50, Table 2; average of results obtained

Work on `CS(=O)(=O)N1CCc2c(c(-c3ccc(Cl)c(C#Cc4ccsc4)c3)nn2CCCN2CCOCC2)C1` [Example 23, 3-(4-Chloro-3-thiophen-3-ylethynyl-phenyl)-5-methanesulfonyl-1-(3-morpholin-4-yl-propyl)-4,5,6,7-tetrahydro-1H-pyrazolo[4,3-c]pyridine] yielded an IC50 of 1440 nM.
